≈ marks a conversion by molar mass, not a printed value.
Experiments:
[1] = Metabolic stability in mouse liver microsomes assessed as half life preincubated for 5 mins followed by NADPH addition and measured upto 30 mins by LC-MS/MS assay; format: ADME, Microsome; conditions: time < 35 min
[2] = Permeability in human Caco-2 cells at 3 uM incubated for 90 mins by LC-MS/MS analysis; format: ADME, cell-based; conditions: read-out: permeability
[3] = Cytotoxicity against mouse J774.G8 cells after 48 hrs by MTT assay; format: functional, cell-based; conditions: J774.G8, 48 h
[4] = Metabolic stability in human liver microsomes in absence of NADPH by LC-MS/MS assay; format: ADME, Microsome
[5] = Metabolic stability in mouse liver microsomes assessed as substrate remaining preincubated for 5 mins followed by NADPH addition and measured upto 30 mins by LC-MS/MS assay; format: ADME, Microsome; conditions: time < 35 min, read-out: Stability
[6] = target: T1, Low molecular weight protein-tyrosine phosphatase A (Mycobacterium tuberculosis, UniProt P9WIA1); test: Inhibition of Mycobacterium tuberculosis H37Rv ptpA expressed in Escherichia coli BL21(DE3) using pNPP as substrate preincubated for 10 mins followed by substrate addition and measured for 5 mins by spectrophotometer analysis
T1 sequence (P9WIA1 whole entry): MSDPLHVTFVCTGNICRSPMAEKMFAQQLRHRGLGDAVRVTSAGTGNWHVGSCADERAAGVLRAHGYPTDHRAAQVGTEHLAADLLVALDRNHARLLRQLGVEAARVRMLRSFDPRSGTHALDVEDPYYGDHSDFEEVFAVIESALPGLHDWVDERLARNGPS

[7] = Metabolic stability in human liver microsomes assessed as intrinsic clearance per mg protein preincubated for 5 mins followed by NADPH addition and measured upto 30 mins by LC-MS/MS assay; format: ADME, Microsome; conditions: time < 35 min, read-out: CLH
[8] = tested on: Mycobacterium tuberculosis; test: Antituberculosis activity against Mycobacterium tuberculosis H37Rv in mouse J774A.1 cells assessed as reduction in intracellular bacterial burden at 10 ug/ml measured after 21 days by agar plate method; format: functional, J774.A1; design: scale not given: the % may be the effect or the level left; conditions: dose 10 µg/ml; time 21 day
[9] = target: T2, Triple specificity protein phosphatase PtpB (Mycobacterium tuberculosis (strain ATCC 25618 / H37Rv), UniProt I6WXK4); test: Inhibition of Mycobacterium tuberculosis H37Rv ptpB expressed in Escherichia coli BL21(DE3) using pNPP as substrate preincubated for 10 mins followed by substrate addition and measured for 5 mins by spectrophotometer analysis
T2 sequence (I6WXK4 whole entry): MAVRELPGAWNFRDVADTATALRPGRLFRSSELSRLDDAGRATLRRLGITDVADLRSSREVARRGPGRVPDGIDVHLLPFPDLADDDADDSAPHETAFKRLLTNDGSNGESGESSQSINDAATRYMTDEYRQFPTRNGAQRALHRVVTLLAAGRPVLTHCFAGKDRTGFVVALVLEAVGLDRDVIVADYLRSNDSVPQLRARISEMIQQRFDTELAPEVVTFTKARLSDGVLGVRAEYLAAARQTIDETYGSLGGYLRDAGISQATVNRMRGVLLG

[10] = tested on: Mycobacterium tuberculosis; test: Antituberculosis activity against Mycobacterium tuberculosis H37Rv in mouse J774A.1 cells assessed as reduction in bacterial burden at 10 ug/ml measured after 21 days in presence of RFP by agar plate method; format: functional, J774.A1; design: scale not given: the % may be the effect or the level left; conditions: dose 10 µg/ml; time 21 day
[11] = tested on: PTP1B versus M. tuberculosis ptpB; test: Selectivity index, ratio of IC50 for human PTP1B to Mycobacterium tuberculosis H37Rv ptpB; format: toxicity; conditions: read-out: Ratio IC50
[12] = tested on: Mycobacterium tuberculosis; test: Antituberculosis activity against Mycobacterium tuberculosis H37Rv by microplate alamar blue assay; format: functional
[13] = tested on: Mycobacterium tuberculosis; test: Antituberculosis activity against Mycobacterium tuberculosis H37Rv in mouse J774A.1 cells assessed as reduction in intracellular bacterial burden measured after 21 days by agar plate method; format: functional, organism-based; conditions: J774.A1, dose 1-10 µg/ml, time 21.0 day
[14] = Metabolic stability in mouse liver microsomes assessed as intrinsic clearance per mg protein preincubated for 5 mins followed by NADPH addition and measured upto 30 mins by LC-MS/MS assay; format: ADME, Microsome; conditions: time < 35 min, read-out: CLH
[15] = target: T3, Tyrosine-protein phosphatase non-receptor type 1 (Homo sapiens, UniProt P18031); test: Inhibition of recombinant human PTP1B using pNPP as substrate preincubated for 5 mins followed by substrate addition and measured for 10 mins; format: toxicity
T3 sequence (P18031 whole entry): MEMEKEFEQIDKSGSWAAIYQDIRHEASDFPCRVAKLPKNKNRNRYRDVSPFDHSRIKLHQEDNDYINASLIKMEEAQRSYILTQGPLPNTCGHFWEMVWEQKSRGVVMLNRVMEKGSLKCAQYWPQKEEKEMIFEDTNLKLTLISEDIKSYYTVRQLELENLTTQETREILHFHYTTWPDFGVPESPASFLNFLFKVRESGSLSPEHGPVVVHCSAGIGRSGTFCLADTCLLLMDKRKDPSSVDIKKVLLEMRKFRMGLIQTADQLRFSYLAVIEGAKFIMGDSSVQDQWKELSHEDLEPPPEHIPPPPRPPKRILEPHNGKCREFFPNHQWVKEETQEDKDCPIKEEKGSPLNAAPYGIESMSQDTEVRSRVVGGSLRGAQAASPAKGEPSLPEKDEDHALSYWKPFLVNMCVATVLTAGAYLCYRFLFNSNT

[16] = Metabolic stability in human liver microsomes assessed as half life preincubated for 5 mins followed by NADPH addition and measured upto 30 mins by LC-MS/MS assay; format: ADME, Microsome; conditions: time < 35 min
[17] = target: T4, Triple specificity protein phosphatase PtpB (Mycobacterium tuberculosis (strain ATCC 25618 / H37Rv)) (UniProt I6WXK4); test: Inhibition of Mycobacterium tuberculosis H37Rv ptpB expressed in Escherichia coli BL21(DE3) at 50 uM using pNPP as substrate preincubated for 10 mins followed by substrate addition and measured for 5 mins by spectrophotometer analysis relative to control; conditions: time 15.0 min
T4 sequence (whole entry): T2 sequence (I6WXK4 whole entry)

[18] = Metabolic stability in mouse liver microsomes in absence of NADPH by LC-MS/MS assay; format: ADME, Microsome
Vero = test: cells; conditions: Chlorocebus sabaeus, 48 h
Description: Cytotoxicity against african green monkey Vero cells after 48 hrs by MTT assay

[19] = Metabolic stability in human liver microsomes assessed as substrate remaining preincubated for 5 mins followed by NADPH addition and measured upto 30 mins by LC-MS/MS assay; format: ADME, Microsome; conditions: time < 35 min, read-out: Stability
[20] = tested on: Mycobacterium tuberculosis; test: Antituberculosis activity against Mycobacterium tuberculosis H37Rv in mouse J774A.1 cells assessed as reduction in intracellular bacterial burden at 0.5 ug/ml measured after 21 days by agar plate method; format: functional, J774.A1; design: scale not given: the % may be the effect or the level left; conditions: dose 0.5 µg/ml; time 21 day
[21] = target: T2, Triple specificity protein phosphatase PtpB; test: Inhibition of Mycobacterium tuberculosis H37Rv ptpB using pNPP as substrate preincubated for 10 mins followed by substrate addition and measured for 5 mins by spectrophotometer analysis

For `CCCC[C@@H](C(=O)O)N1C(=O)/C(=C/c2ccc(-c3cccc(C(F)(F)F)c3)cc2)SC1=S`, the half-life [1] was greater than 93.2 min, the Papp at 1.5 h, 3 µM [2] was 16.9 ×10⁻⁶ cm/s and the IC50 [3] was 50.3 µg/mL (≈ 105 µM). The Stability [4] was “Stable”, the remaining at 0.5 h [5] was 101% and the IC50 [6] was 4.06 µM. For the same molecule, the microsomal CLint [7] was less than 6.1 µL/min/mg, the Activity [8] was greater than 85% and the IC50 [9] was 640 nM. The Activity [10] was greater than 95%, the selectivity ratio [11] was 7 and the MIC [12] was 31.1 µg/mL (≈ 64.9 µM). For the same molecule, the Activity [13] was “Dose-Dependent Effect”, the microsomal CLint [14] was less than 22.1 µL/min/mg and the IC50 [15] was 4.14 µM. The half-life [16] was greater than 93.2 min, the inhibition [17] was 104% and the Stability [18] was “Stable”. For the same molecule, the IC50 (Vero) was 32.2 µg/mL (≈ 67.1 µM) and the remaining at 0.5 h [19] was 95.9%.

With `CO[C@H]1/C=C/O[C@@]2(C)Oc3c(C)c(O)c4c(O)c(c(/C=N/N5CCN(C)CC5)c(O)c4c3C2=O)NC(=O)/C(C)=C\C=C\[C@H](C)[C@H](O)[C@@H](C)[C@@H](O)[C@@H](C)[C@H](OC(C)=O)[C@@H]1C` [RIFAMPIN] the IC50 [3] was greater than 64 µg/mL, the MIC [12] was 0.023 µg/mL (≈ 0.0279 µM) and the IC50 (Vero) was greater than 64 µg/mL. It also gave an Activity [20] greater than 85%.

With `O=C1NC(=S)NC(=O)C1Cc1cc(Br)ccc1OCc1ccc(Cl)cc1` the IC50 [21] was 22.4 µM and the MIC [12] was greater than 32 µg/mL.
